Test results from the supplement of paper PMC10307832.

Experiments:
Assay in all cases: relative viability (nuclei count vs DMSO), 5 days (fraction); higher = more cells survive
[1] = compound: C1=CC2=C(C=C(C(=C2N=C1)O)N=NC3=CC4=C(C=C3)C=C(C=C4)S(=O)(=O)O)S(=O)(=O)O + CCNC(=O)c1noc(-c2cc(C(C)C)c(O)cc2O)c1-c1ccc(CN2CCOCC2)cc1 [Luminespib] (partner 0.01 µM)
Procedure, shortened: (§1)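 Lung cancer cell lines, seeded in 1536-well plates, were treated the following day by pin tool with a single drug or with five library-drug doses (not always all listed) in √10 steps on top of a fixed anchor-drug dose. Cells were fixed and nuclei stained in one step after 5 days, and nuclei were counted. Relative viability is the nuclei count for treated wells divided by that for vehicle wells, reported as medians of duplicate plates.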

[2] = compound: C1=CC2=C(C=C(C(=C2N=C1)O)N=NC3=CC4=C(C=C3)C=C(C=C4)S(=O)(=O)O)S(=O)(=O)O + O=C(c1cc(Cc2n[nH]c(=O)c3ccccc23)ccc1F)N1CCN(C(=O)C2CC2)CC1 [Olaparib] (partner 8 µM)
Procedure, shortened: as §1

AT-7519 + Pictilisib = compound: O=C(NC1CCNCC1)c1n[nH]cc1NC(=O)c1c(Cl)cccc1Cl [AT-7519] + CS(=O)(=O)N1CCN(Cc2cc3nc(-c4cccc5[nH]ncc45)nc(N4CCOCC4)c3s2)CC1 [Pictilisib] (partner 1 µM)
Procedure, shortened: as §1

AT-7519 + AZD7762 = compound: O=C(NC1CCNCC1)c1n[nH]cc1NC(=O)c1c(Cl)cccc1Cl [AT-7519] + NC(=O)Nc1cc(-c2cccc(F)c2)sc1C(=O)N[C@H]1CCCNC1 [AZD7762] (partner 0.2 µM)
Procedure, shortened: as §1

Row | Cell Line | relative viability ([1]; first compound 0.08 µM) | relative viability ([1]; first compound 0.253 µM) | relative viability ([1]; first compound 0.8 µM) | relative viability ([1]; first compound 2.53 µM) | relative viability ([1]; first compound 8 µM) | relative viability ([2]; first compound 0.08 µM) | relative viability ([2]; first compound 0.253 µM) | relative viability ([2]; first compound 0.8 µM) | relative viability ([2]; first compound 2.53 µM) | relative viability ([2]; first compound 8 µM) | relative viability (AT-7519 + Pictilisib; first compound 0.01 µM) | relative viability (AT-7519 + Pictilisib; first compound 0.03162 µM) | relative viability (AT-7519 + Pictilisib; first compound 0.3162 µM) | relative viability (AT-7519 + Pictilisib; first compound 1 µM) | relative viability (AT-7519 + AZD7762; first compound 0.01 µM) | relative viability (AT-7519 + AZD7762; first compound 0.03162 µM) | relative viability (AT-7519 + AZD7762; first compound 0.3162 µM) | relative viability (AT-7519 + AZD7762; first compound 1 µM)
1 | EMC-BAC-2 | 1.25 | 1.05 | 1.2 | 1.24 | 1.13 | 0.504 | 0.485 | 0.493 | 0.489 | 0.465 | 0.56 | 0.524 | 0.506 | 0.538 | 1.09 | 1.1 | 1.03 | 1.19
2 | NCI-H1993 | 0.83 | 0.865 | 0.853 | 1.09 | 0.589 | 1.03 | 0.931 | 1.18 | 1.09 | 1.1 | 0.783 | 0.76 | 0.929 | 0.606 | 0.671 | 0.637 | 0.736 | 0.38
3 | NCI-H647 | 0.138 | 0.241 | 0.215 | 0.276 | 0.135 | 0.516 | 0.48 | 0.522 | 0.65 | 0.545 | 0.452 | 0.531 | 0.483 | 0.356 | 0.353 | 0.481 | 0.552 | 0.361
4 | NCI-H1792 | 0.481 | 0.418 | 0.58 | 0.423 | 0.331 | 0.579 | 0.253 | 0.355 | 0.507 | 0.432 | 0.196 | 0.218 | 0.234 | 0.252 | 0.759 | 0.554 | 0.571 | 0.467
5 | ChaGo-K-1 | 0.558 | 0.573 | 0.587 | 0.595 | 0.553 | 0.445 | 0.405 | 0.438 | 0.422 | 0.341 | 0.589 | 1.16 | 0.536 | 0.547 | 0.895 | 0.838 | 0.843 | 0.844
6 | LOU-NH91 | 0.418 | 0.354 | 0.327 | 0.373 | 0.341 | 1.01 | 0.907 | 0.927 | 0.881 | 0.919 | 0.551 | 0.536 | 0.516 | 0.479 | 0.755 | 0.79 | 0.643 | 0.713
7 | NCI-H2405 | 0.891 | 0.79 | 0.632 | 0.827 | 0.753 | 0.85 | 0.888 | 0.816 | 0.898 | 0.845 | 0.461 | 0.424 | 0.438 | 0.293 | 0.732 | 0.724 | 0.683 | 0.527
8 | LCLC-97TM1 | 0.963 | 0.678 | 0.714 | 0.805 | 0.801 | 0.41 | 0.38 | 0.432 | 0.338 | 0.32 | 0.196 | 0.176 | 0.211 | 0.152 | 0.24 | 0.294 | 0.335 | 0.394
9 | NCI-H596 | 1.16 | 1.09 | 1.05 | 1.11 | 0.832 | 0.7 | 0.798 | 0.639 | 0.746 | 0.747 | 0.389 | 0.433 | 0.414 | 0.347 | 1.22 | 1.06 | 0.982 | 0.938
10 | NCI-H727 | 0.478 | 0.45 | 0.327 | 0.346 | 0.359 | 0.635 | 0.676 | 0.684 | 0.859 | 0.665 | 0.354 | 0.263 | 0.197 | 0.204 | 0.571 | 0.494 | 0.604 | 0.414
11 | H3255 | 0.838 | 0.876 | 0.864 | 0.855 | 0.78 | 0.6 | 0.571 | 0.551 | 0.638 | 0.587 | 0.537 | 0.502 | 0.441 | 0.313 | 0.987 | 0.903 | 0.937 | 0.876
12 | NCI-H1437 | 1.21 | 1.11 | 1.13 | 1.16 | 0.571 | 0.617 | 0.611 | 0.655 | 0.638 | 0.613 | 0.471 | 0.392 | 0.29 | 0.133 | 0.989 | 1.09 | 1.07 | 0.982
13 | LU99A | 0.234 | 0.35 | 0.216 | 0.228 | 0.27 | 0.264 | 0.282 | 0.286 | 0.257 | 0.243 | 0.365 | 0.307 | 0.283 | 0.251 | 0.329 | 0.29 | 0.538 | 0.342
